In patent publication US20080076788A1, “SOLID FORMS OF (3'-CHLOROBIPHENYL-4-YL)(1-(PYRIMIDIN-2-YL)PIPERIDIN-4-YL)METHANONE AND METHODS OF THEIR USE” (priority 2006, published 2008):

What was measured:
[1] = test system: mice; experiment: Learning and memory in mice after administration of the compound; format: in vivo; conditions: administered to mice
[2] = target: T1, Na^+-dependent proline transporter (Homo sapiens, UniProt Q99884); conditions: statement in words, refers to U.S. patent application Ser. Nos. 11/433,057 and 11/433,626; cited from earlier work
T1 sequence (Q99884 1-636): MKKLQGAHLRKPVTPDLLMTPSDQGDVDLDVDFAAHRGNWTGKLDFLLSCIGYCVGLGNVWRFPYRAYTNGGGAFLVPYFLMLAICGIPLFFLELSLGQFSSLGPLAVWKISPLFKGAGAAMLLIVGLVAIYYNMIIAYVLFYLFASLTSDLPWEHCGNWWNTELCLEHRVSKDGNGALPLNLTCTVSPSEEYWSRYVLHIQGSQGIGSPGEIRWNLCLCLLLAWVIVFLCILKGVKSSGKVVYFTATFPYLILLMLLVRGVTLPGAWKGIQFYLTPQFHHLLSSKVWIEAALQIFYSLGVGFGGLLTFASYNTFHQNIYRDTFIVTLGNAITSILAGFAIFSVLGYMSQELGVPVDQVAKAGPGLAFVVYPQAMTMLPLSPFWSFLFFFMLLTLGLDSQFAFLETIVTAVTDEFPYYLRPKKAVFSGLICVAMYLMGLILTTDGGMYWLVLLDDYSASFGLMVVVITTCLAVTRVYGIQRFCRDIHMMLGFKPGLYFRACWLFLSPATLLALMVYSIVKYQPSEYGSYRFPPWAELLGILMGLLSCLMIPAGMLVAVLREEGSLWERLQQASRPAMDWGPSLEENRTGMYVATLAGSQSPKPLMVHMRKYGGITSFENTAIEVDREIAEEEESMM

melting point: ~ 117 °C
Compound: O=C(c1ccc(-c2cccc(Cl)c2)cc1)C1CCN(c2ncccn2)CC1 [(3′-chlorobiphenyl-4-yl)(1-(pyrimidin-2-yl)piperidin-4-yl)methanone]
effect on learning and memory [1]: increase learning and memory
inhibition of the Na+-dependent proline transporter [2]: inhibitor
